Results as given in patent US20090181991A1, “COMPOUNDS AND COMPOSITIONS AS PROTEIN KINASE INHIBITORS” (IRM LLC, priority 2005, published 2009).

Legend:
Experiment in all cases: Upstate KinaseProfiler radio-enzymatic filter binding assay
Format in all cases: biochemical
Details in all cases: 10 μM compound, remaining activity
Bmx = target: T1, Bmx (Homo sapiens, UniProt P51813)
T1 construct: purchased Upstate
T1 sequence (P51813 1-675): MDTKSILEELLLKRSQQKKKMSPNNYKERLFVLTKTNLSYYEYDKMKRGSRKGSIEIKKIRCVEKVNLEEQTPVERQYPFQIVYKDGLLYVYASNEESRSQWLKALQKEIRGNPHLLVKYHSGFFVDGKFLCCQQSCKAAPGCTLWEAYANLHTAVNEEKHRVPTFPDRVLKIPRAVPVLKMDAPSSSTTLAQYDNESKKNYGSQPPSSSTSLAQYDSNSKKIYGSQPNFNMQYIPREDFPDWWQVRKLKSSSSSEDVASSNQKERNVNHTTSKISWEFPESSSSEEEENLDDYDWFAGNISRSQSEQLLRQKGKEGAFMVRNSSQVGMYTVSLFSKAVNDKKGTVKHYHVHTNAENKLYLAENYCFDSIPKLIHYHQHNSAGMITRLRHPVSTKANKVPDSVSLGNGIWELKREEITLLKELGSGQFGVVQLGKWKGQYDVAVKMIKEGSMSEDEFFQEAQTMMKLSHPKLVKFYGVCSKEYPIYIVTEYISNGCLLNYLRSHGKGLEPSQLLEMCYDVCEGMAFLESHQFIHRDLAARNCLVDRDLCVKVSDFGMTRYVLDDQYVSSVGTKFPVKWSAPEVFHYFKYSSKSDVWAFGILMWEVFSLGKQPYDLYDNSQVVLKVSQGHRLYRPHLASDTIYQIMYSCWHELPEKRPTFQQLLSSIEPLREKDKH
Protocol: (§1) Percentage inhibition is calculated for each reaction.

Flt3 = target: T2, Flt3 (Homo sapiens, UniProt P36888)
T2 construct: purchased Upstate
T2 sequence (P36888 27-993): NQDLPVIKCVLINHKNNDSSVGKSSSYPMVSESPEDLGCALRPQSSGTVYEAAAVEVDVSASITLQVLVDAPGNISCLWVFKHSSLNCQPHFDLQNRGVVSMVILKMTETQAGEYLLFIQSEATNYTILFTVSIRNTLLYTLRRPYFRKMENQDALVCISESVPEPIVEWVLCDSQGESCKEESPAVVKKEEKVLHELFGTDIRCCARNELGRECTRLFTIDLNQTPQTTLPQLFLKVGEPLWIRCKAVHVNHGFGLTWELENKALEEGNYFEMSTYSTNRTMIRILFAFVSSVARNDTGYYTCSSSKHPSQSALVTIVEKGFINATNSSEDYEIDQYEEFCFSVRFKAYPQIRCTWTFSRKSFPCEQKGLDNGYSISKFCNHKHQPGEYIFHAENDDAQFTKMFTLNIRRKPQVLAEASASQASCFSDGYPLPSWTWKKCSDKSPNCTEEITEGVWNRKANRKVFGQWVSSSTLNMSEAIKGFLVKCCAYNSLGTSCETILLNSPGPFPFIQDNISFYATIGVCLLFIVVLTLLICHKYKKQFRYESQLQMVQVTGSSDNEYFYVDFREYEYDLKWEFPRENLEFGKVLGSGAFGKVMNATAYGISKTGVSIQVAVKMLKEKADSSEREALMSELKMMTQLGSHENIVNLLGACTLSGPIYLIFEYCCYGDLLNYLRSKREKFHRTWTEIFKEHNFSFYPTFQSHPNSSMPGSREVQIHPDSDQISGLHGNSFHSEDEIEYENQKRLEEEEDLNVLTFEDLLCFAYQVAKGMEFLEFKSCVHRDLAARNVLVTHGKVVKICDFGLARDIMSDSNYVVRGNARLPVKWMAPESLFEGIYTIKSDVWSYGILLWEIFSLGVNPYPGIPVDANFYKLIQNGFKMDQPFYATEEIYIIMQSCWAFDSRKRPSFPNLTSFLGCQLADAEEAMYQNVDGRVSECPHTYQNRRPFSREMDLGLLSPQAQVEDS
Protocol: as §1

Lck = target: T3, Lck (Homo sapiens, UniProt P06239)
T3 construct: purchased Upstate
T3 sequence (P06239 whole entry): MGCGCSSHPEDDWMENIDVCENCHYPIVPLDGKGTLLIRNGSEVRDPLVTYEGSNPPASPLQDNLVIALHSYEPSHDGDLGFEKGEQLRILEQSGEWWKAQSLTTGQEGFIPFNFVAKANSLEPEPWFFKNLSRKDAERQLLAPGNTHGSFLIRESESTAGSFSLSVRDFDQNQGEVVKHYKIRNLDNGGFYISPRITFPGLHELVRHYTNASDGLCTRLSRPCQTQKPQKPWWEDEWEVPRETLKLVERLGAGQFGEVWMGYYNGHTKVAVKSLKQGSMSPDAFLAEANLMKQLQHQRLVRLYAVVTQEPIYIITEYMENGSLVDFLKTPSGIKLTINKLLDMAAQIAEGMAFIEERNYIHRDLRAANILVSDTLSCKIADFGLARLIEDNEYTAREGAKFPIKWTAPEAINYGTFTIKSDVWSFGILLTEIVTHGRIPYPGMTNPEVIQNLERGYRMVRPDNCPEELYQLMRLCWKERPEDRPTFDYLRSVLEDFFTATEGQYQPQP
Protocol: as §1

SAPK2a = target: T4, SAPK2a (Homo sapiens, UniProt Q16539)
T4 construct: purchased Upstate
T4 sequence (Q16539 whole entry): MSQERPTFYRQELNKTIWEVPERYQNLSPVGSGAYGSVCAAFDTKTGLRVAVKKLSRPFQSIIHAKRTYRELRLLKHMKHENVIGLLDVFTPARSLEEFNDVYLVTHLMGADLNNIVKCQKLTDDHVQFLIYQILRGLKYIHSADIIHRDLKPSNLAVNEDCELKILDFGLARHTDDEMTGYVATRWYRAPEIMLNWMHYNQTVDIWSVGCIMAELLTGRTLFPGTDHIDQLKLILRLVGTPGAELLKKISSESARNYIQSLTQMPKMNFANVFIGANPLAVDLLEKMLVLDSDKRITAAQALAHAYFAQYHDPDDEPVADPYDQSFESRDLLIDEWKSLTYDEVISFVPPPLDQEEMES
Protocol: as §1

Measured: kinase activity

O=C(Nc1cccc(Nc2cc(Nc3cccc(C(F)(F)F)c3)ncn2)c1)C1CC1 [Example 1, Cyclopropanecarboxylic acid {3-[6-(3-trifluoromethyl-phenylamino)-pyrimidin-4-ylamino]-phenyl}-amide]
less than 50%: all assays above
